# In PubChem BioAssay (NCI):
#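 Compound exposure: 48 hours, 5 concentrations, 96-well plates. TGI marks complete inhibition of growth.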
# Legend:
# Assay in all cases: NCI anticancer screen, dose series, 48 h
# [1] = system: SW-620 colon
# [2] = system: NCI-H460 lung
# [3] = system: KM12 colon
# [4] = system: SN12C renal
# [5] = system: OVCAR-4 ovarian
# [6] = system: EKVX NSCLC
# [7] = system: SF-539 CNS
# [8] = system: COLO 205 colon
# [9] = system: DMS 273 small cell lung
# [10] = system: OVCAR-8 ovarian
# [11] = system: LXFL 529 NSCLC
# [12] = system: CAKI-1 renal
# [13] = system: HT29 colon
# [14] = system: 786-0 renal
# [15] = system: RPMI-8226 leukemia
# [16] = system: RXF-631 renal
# [17] = system: MALME-3M melanoma
# [18] = system: K-562 leukemia
# [19] = system: U251 CNS
# [20] = system: DLD-1 colon
# [21] = system: HOP-62 NSCLC
# [22] = system: OVCAR-5 ovarian
# [23] = system: CCRF-CEM leukemia
# [24] = system: SF-295 CNS
# [25] = system: HCT-116 colon
# [26] = system: DMS 114 small cell lung
# [27] = system: M19-MEL melanoma
# [28] = system: SF-268 CNS
# [29] = system: UO-31 renal
# [30] = system: A549 NSCLC
# [31] = system: SK-MEL-2 melanoma
# [32] = system: HOP-92 NSCLC
# [33] = system: M14 melanoma
# [34] = system: NCI-H23 lung
# [35] = system: HCT-15 colon
# [36] = system: UACC-62 melanoma
# [37] = system: HCC-2998 colon
# [38] = system: UACC-257 melanoma
# [39] = system: SNB-19 CNS
# [40] = system: RXF 393 renal
# [41] = system: OVCAR-3 ovarian
# [42] = system: HL-60(TB) leukemia
# [43] = system: SK-MEL-28 melanoma
# [44] = system: ACHN renal
# [45] = system: SNB-78 CNS
# [46] = system: NCI-H522 lung
# [47] = system: NCI-H226 lung
# [48] = system: IGROV1 ovarian
# [49] = system: MOLT-4 leukemia
# [50] = system: SNB-75 CNS
# [51] = system: A498 renal
# [52] = system: TK-10 renal
# [53] = system: KM20L2 colon
# [54] = system: SK-OV-3 ovarian
# [55] = system: SR leukemia
# [56] = system: SK-MEL-5 melanoma
# [57] = system: LOX IMVI melanoma
# [58] = system: HOP-18 NSCLC
# [59] = system: XF 498 CNS
structure (smiles),measurement,setting,value
O=C1C=C(Nc2ccc(Cl)cc2Cl)c2ccccc2C1=O,TGI,[1],> 100 µM
same,TGI,[2],> 100 µM
same,TGI,[3],> 100 µM
same,TGI,[4],> 100 µM
same,TGI,[5],> 100 µM
same,TGI,[6],> 100 µM
same,TGI,[7],> 100 µM
same,TGI,[8],> 100 µM
same,TGI,[9],79.5 µM
same,TGI,[10],> 100 µM
same,TGI,[11],> 100 µM
same,TGI,[12],> 100 µM
same,TGI,[13],> 100 µM
same,TGI,[14],> 100 µM
same,TGI,[15],> 100 µM
same,TGI,[16],> 100 µM
same,TGI,[17],71 µM
same,TGI,[18],> 100 µM
same,TGI,[19],> 100 µM
same,TGI,[20],> 100 µM
same,TGI,[21],> 100 µM
same,TGI,[22],> 100 µM
same,TGI,[23],85 µM
same,TGI,[24],> 100 µM
same,TGI,[25],> 100 µM
same,TGI,[26],64.1 µM
same,TGI,[27],26.3 µM
same,TGI,[28],> 100 µM
same,TGI,[29],> 100 µM
same,TGI,[30],> 100 µM
same,TGI,[31],60.8 µM
same,TGI,[32],56.5 µM
same,TGI,[33],57.8 µM
same,TGI,[34],54.5 µM
same,TGI,[35],> 100 µM
same,TGI,[36],32.8 µM
same,TGI,[37],> 100 µM
same,TGI,[38],> 100 µM
same,TGI,[39],> 100 µM
same,TGI,[40],> 100 µM
same,TGI,[41],> 100 µM
same,TGI,[42],92.5 µM
same,TGI,[43],> 100 µM
same,TGI,[44],> 100 µM
same,TGI,[45],> 100 µM
same,TGI,[46],> 100 µM
same,TGI,[47],87.2 µM
same,TGI,[48],> 100 µM
same,TGI,[49],> 100 µM
same,TGI,[50],70.4 µM
same,TGI,[51],> 100 µM
same,TGI,[52],> 100 µM
same,TGI,[53],> 100 µM
same,TGI,[54],> 100 µM
same,TGI,[55],74.9 µM
C=CCC1(CN(C)C)CC/C(=C\c2ccc(OC)cc2)C1=O (stereo not given),TGI,[1],> 100 µM
same,TGI,[2],> 100 µM
same,TGI,[56],> 100 µM
same,TGI,[3],> 100 µM
same,TGI,[4],> 100 µM
same,TGI,[5],> 100 µM
same,TGI,[6],> 100 µM
same,TGI,[7],> 100 µM
same,TGI,[8],> 100 µM
same,TGI,[9],> 100 µM
same,TGI,[10],> 100 µM
same,TGI,[11],> 100 µM
same,TGI,[13],> 100 µM
same,TGI,[14],> 100 µM
same,TGI,[15],52.6 µM
same,TGI,[16],49 µM
same,TGI,[17],> 100 µM
same,TGI,[18],> 100 µM
same,TGI,[19],> 100 µM
same,TGI,[57],> 100 µM
same,TGI,[20],> 100 µM
same,TGI,[21],> 100 µM
same,TGI,[22],> 100 µM
same,TGI,[23],> 100 µM
same,TGI,[24],> 100 µM
same,TGI,[25],> 100 µM
same,TGI,[26],> 100 µM
same,TGI,[27],> 100 µM
same,TGI,[28],> 100 µM
same,TGI,[29],> 100 µM
same,TGI,[30],> 100 µM
same,TGI,[31],> 100 µM
same,TGI,[32],> 100 µM
same,TGI,[33],> 100 µM
same,TGI,[34],> 100 µM
same,TGI,[35],> 100 µM
same,TGI,[36],> 100 µM
same,TGI,[58],> 100 µM
same,TGI,[37],> 100 µM
same,TGI,[38],> 100 µM
same,TGI,[39],> 100 µM
same,TGI,[40],> 100 µM
same,TGI,[41],> 100 µM
same,TGI,[42],45.6 µM
same,TGI,[43],> 100 µM
same,TGI,[44],> 100 µM
same,TGI,[45],> 100 µM
same,TGI,[46],81.9 µM
same,TGI,[47],> 100 µM
same,TGI,[48],> 100 µM
same,TGI,[49],> 100 µM
same,TGI,[50],> 100 µM
same,TGI,[51],> 100 µM
same,TGI,[52],> 100 µM
same,TGI,[53],> 100 µM
NNC(=O)C(=O)N/N=C(\CCCC(=O)Nc1ccc(Cl)cc1)CC(=O)c1ccc(F)cc1,TGI,[1],> 100 µM
same,TGI,[2],> 100 µM
same,TGI,[56],> 100 µM
same,TGI,[3],> 100 µM
same,TGI,[4],> 100 µM
same,TGI,[5],> 100 µM
same,TGI,[6],> 100 µM
same,TGI,[8],> 100 µM
same,TGI,[10],> 100 µM
same,TGI,[11],> 100 µM
same,TGI,[13],> 100 µM
same,TGI,[14],> 100 µM
same,TGI,[15],> 100 µM
same,TGI,[16],> 100 µM
same,TGI,[17],> 100 µM
same,TGI,[19],> 100 µM
same,TGI,[57],> 100 µM
same,TGI,[20],> 100 µM
same,TGI,[21],> 100 µM
same,TGI,[22],> 100 µM
same,TGI,[59],> 100 µM
same,TGI,[23],> 100 µM
same,TGI,[24],> 100 µM
same,TGI,[25],> 100 µM
same,TGI,[26],> 100 µM
same,TGI,[27],> 100 µM
same,TGI,[28],> 100 µM
same,TGI,[29],> 100 µM
same,TGI,[30],> 100 µM
same,TGI,[31],> 100 µM
same,TGI,[32],> 100 µM
same,TGI,[33],> 100 µM
same,TGI,[34],> 100 µM
same,TGI,[36],78.5 µM
same,TGI,[58],> 100 µM
same,TGI,[37],> 100 µM
same,TGI,[38],> 100 µM
same,TGI,[39],> 100 µM
same,TGI,[40],> 100 µM
same,TGI,[41],> 100 µM
same,TGI,[42],> 100 µM
same,TGI,[43],> 100 µM
same,TGI,[44],> 100 µM
same,TGI,[45],> 100 µM
same,TGI,[47],> 100 µM
same,TGI,[48],> 100 µM
same,TGI,[49],> 100 µM
same,TGI,[50],> 100 µM
same,TGI,[51],88.6 µM
same,TGI,[52],> 100 µM
same,TGI,[53],> 100 µM
N#C/C(=C\c1cc(O)cc(O)c1)C(N)=O,TGI,[1],> 100 µM
same,TGI,[2],> 100 µM
same,TGI,[3],> 100 µM
same,TGI,[4],> 100 µM
same,TGI,[5],> 100 µM
same,TGI,[6],> 100 µM
same,TGI,[7],> 100 µM
same,TGI,[8],> 100 µM
same,TGI,[9],> 100 µM
same,TGI,[10],> 100 µM
same,TGI,[11],> 100 µM
same,TGI,[12],> 100 µM
same,TGI,[13],> 100 µM
same,TGI,[14],> 100 µM
same,TGI,[15],> 100 µM
same,TGI,[16],> 100 µM
same,TGI,[17],> 100 µM
same,TGI,[18],> 100 µM
same,TGI,[19],> 100 µM
same,TGI,[20],> 100 µM
same,TGI,[21],> 100 µM
same,TGI,[22],> 100 µM
same,TGI,[59],> 100 µM
same,TGI,[23],> 100 µM
same,TGI,[24],> 100 µM
same,TGI,[25],> 100 µM
same,TGI,[26],> 100 µM
same,TGI,[27],> 100 µM
same,TGI,[28],> 100 µM
same,TGI,[29],> 100 µM
same,TGI,[30],> 100 µM
same,TGI,[31],> 100 µM
same,TGI,[32],> 100 µM
same,TGI,[33],> 100 µM
same,TGI,[34],> 100 µM
same,TGI,[35],> 100 µM
same,TGI,[36],> 100 µM
same,TGI,[37],> 100 µM
same,TGI,[38],> 100 µM
same,TGI,[39],> 100 µM
same,TGI,[40],> 100 µM
same,TGI,[41],> 100 µM
same,TGI,[43],> 100 µM
same,TGI,[44],> 100 µM
same,TGI,[45],> 100 µM
same,TGI,[46],66.2 µM
same,TGI,[47],> 100 µM
same,TGI,[48],> 100 µM
same,TGI,[49],> 100 µM
same,TGI,[50],> 100 µM
same,TGI,[51],> 100 µM
same,TGI,[52],> 100 µM
same,TGI,[53],> 100 µM
same,TGI,[54],> 100 µM
